Results: ChEMBL document CHEMBL6127090, “Further Probing the Properties of a Unique Sponge-derived Alkaloid Through the Isolation of a New (-)-(5E)-(8R)-(14Z)-Mycothiazole Analogue” (J Nat Prod, 2024)
Activity calls are given as the source filed them. No cut-off for these calls is given here.

Key:
Caenorhabditis elegans [1] = test: Reduction in oxygen consumption rate in Caenorhabditis elegans at 5 uM incubated for 24 hrs; format: functional, organism-based
Caenorhabditis elegans [2] = test: Inhibition of mitochondrial electron transport chain in Caenorhabditis elegans assessed as increase in life span at 5 uM; format: functional, organism-based
Caenorhabditis elegans [3] = test: Induction of mitochondrial morphology change in Caenorhabditis elegans at 5 uM incubated for 24 hrs; format: functional, organism-based
Caenorhabditis elegans [4] = test: Activation of unfolded protein response in Caenorhabditis elegans mitochondria at 5 uM; format: functional, organism-based
PANC-1 = test: Cytotoxicity against human PANC-1 cells incubated for 3 days by trypan blue assay; format: functional, cell-based; details: PANC-1, 72 h
HepG2 = test: Cytotoxicity against human HepG2 cells incubated for 3 days by trypan blue assay; format: functional, cell-based; details: HepG2, 72 h
[5] = Toxicity in iv dosed mouse assessed as maximum tolerated dose; format: organism-based; details: in vivo

## C=CC/C=C\Cc1csc(C(C)(C)[C@H](O)C/C=C\C(=C)CCNC(=O)OC)n1
Caenorhabditis elegans [1]
  Activity: Active
Caenorhabditis elegans [2]
  Activity: Active
Caenorhabditis elegans [3]
  Activity: inactive
Caenorhabditis elegans [4]
  Activity: inactive

## C=CC/C=C\Cc1csc(C(C)(C)[C@H](O)C/C=C/C(=C)CCNC(=O)OC)n1
PANC-1
  IC50: 112 nM
HepG2
  IC50: 115 nM
Caenorhabditis elegans [1]
  Activity: Active
Caenorhabditis elegans [2]
  Activity: Active
Caenorhabditis elegans [3]
  Activity: inactive
Caenorhabditis elegans [4]
  Activity: inactive

## C=CC/C=C\Cc1csc(C(C)(C)[C@@H](O)C/C=C\C(=C)CCNC(=O)OC)n1
Caenorhabditis elegans [1]
  Activity: Active
Caenorhabditis elegans [2]
  Activity: Active
Caenorhabditis elegans [3]
  Activity: inactive
Caenorhabditis elegans [4]
  Activity: inactive

## C=CC/C=C\Cc1csc(C(C)(C)[C@H](C/C=C\C(=C)CCNC(=O)OC)OC(C)=O)n1
Caenorhabditis elegans [1]
  Activity: Active
Caenorhabditis elegans [2]
  Activity: Active
Caenorhabditis elegans [3]
  Activity: inactive
Caenorhabditis elegans [4]
  Activity: inactive
[5]
  MTD: 0.1 mg/kg
